According to ChEMBL document CHEMBL1201862, “PubChem BioAssay data set” (2004):
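Growth conditions: 96-well plates. Treatment: test compound, 48 hours, 5 concentrations. Analysis: linear interpolation between bracketing concentrations; unreached endpoints set to highest concentration. GI50 is the concentration that inhibits growth by half.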 Calls of active or inactive are those of the source. No stated cut-off is given here; in the data, active = GI50 up to about 1.1 µM and inactive = higher. *1 amine or outer side, *2 acyl side, *3 side chain or, on linkers, in order; H or OH if unused. Where a SMILES comes first, the peptide text is derived from it. Bridges are numbered along the chain shown (N, C = ends). [ ]: non-standard residue; d: D form. The star is where a group is joined. ξ: configuration not given here. ξOrn(4,5-diOH) = O=C(C(CC(O)C(O)N[*:3])N[*:1])[*:2]; ξhTyr(βξ-OH,γξ-OH) = NC(C(=O)O)C(O)C(O)c1ccc(O)cc1; ξPro(3ξ-OH,4ξ-Me) = CC1CNC(C(=O)O)C1O; X55 = CCCCC/C=C/C/C=C\CCCCCCCC(=O)*; Hyp = O=C(O)[CH]1C[CH](O)CN1

Key:
Test in all cases: NCI-60 cell line screen, 48 h
T47D = test system: T47D
NCI/ADR-RES = test system: NCI/ADR-RES
MDA-N = test system: MDA-N
A549 = test system: A549
HOP-92 = test system: HOP-92
SF-268 = test system: SF-268
MDA-MB-231 = test system: MDA-MB-231
NCI-H460 = test system: NCI-H460
Malme-3M = test system: Malme-3M
MDA-MB-435 = test system: MDA-MB-435
SN12C = test system: SN12C
HCT-15 = test system: HCT-15
SK-MEL-28 = test system: SK-MEL-28
OVCAR-3 = test system: OVCAR-3
OVCAR-5 = test system: OVCAR-5
RPMI-8226 = test system: RPMI-8226
HOP-62 = test system: HOP-62
SF-539 = test system: SF-539
OVCAR-4 = test system: OVCAR-4
SK-OV-3 = test system: SK-OV-3

Row | Structure (SMILES) | GI50 (T47D) | GI50 (NCI/ADR-RES) | GI50 (MDA-N) | GI50 (A549) | GI50 (HOP-92) | GI50 (SF-268) | GI50 (MDA-MB-231) | GI50 (NCI-H460) | GI50 (Malme-3M) | GI50 (MDA-MB-435) | GI50 (SN12C) | GI50 (HCT-15) [µM] | GI50 (SK-MEL-28) | GI50 (OVCAR-3) | GI50 (OVCAR-5) | GI50 (RPMI-8226) | GI50 (HOP-62) | GI50 (SF-539) | GI50 (OVCAR-4) | GI50 (SK-OV-3)
1 | Cc1cc(O)nc(/N=C(\N)Nc2ccc(Cl)cc2)n1 | > 100 µM (inactive) | > 100 µM (inactive) | > 100 µM (inactive) | > 100 µM (inactive) | > 100 µM (inactive) | > 100 µM (inactive) | > 100 µM (inactive) | > 100 µM (inactive) | > 100 µM (inactive) | > 100 µM (inactive) | > 100 µM (inactive) | > 100 | > 100 µM (inactive) | > 100 µM (inactive) | > 100 µM (inactive) | > 100 µM (inactive) | > 100 µM (inactive) |  |  | 
2 | CC(=O)OC1C[C@@H](C)C2(CC(c3ccoc3)OC2=O)C2CCC(O)C3(CO3)C12CO (some centres undefined) | > 100 µM (inactive) | > 100 µM (inactive) | > 100 µM (inactive) | > 100 µM (inactive) | > 100 µM (inactive) | > 100 µM (inactive) | > 100 µM (inactive) | > 100 µM (inactive) | > 100 µM (inactive) | > 100 µM (inactive) | > 100 µM (inactive) | > 100 | > 100 µM (inactive) | > 100 µM (inactive) | > 100 µM (inactive) | > 100 µM (inactive) | > 100 µM (inactive) | > 100 µM (inactive) | > 100 µM (inactive) | 
3 | O=C(c1ccccc1)c1sc2c(=O)c(C(=O)c3ccccc3)c(C(=O)c3ccccc3)sc2c(=O)c1C(=O)c1ccccc1 | 47.5 µM (inactive) | 24.5 µM (inactive) | 32.2 µM (inactive) | > 100 µM (inactive) | 37.2 µM (inactive) | 46.7 µM (inactive) | > 100 µM (inactive) | > 100 µM (inactive) | 75.7 µM (inactive) | 27.1 µM (inactive) | 54.8 µM (inactive) | 35 | > 100 µM (inactive) | 98.6 µM (inactive) | > 100 µM (inactive) |  | 51.1 µM (inactive) | 23.6 µM (inactive) | > 100 µM (inactive) | 37.8 µM (inactive)
4 | CC1(C)OC2COC3([C@@H]4OC(C)(C)O[C@@H]4CO)OC(C)(C)OC3C2O1 (some centres undefined) | > 100 µM (inactive) | > 100 µM (inactive) | > 100 µM (inactive) | > 100 µM (inactive) | > 100 µM (inactive) |  | > 100 µM (inactive) | > 100 µM (inactive) |  | > 100 µM (inactive) | > 100 µM (inactive) | > 100 | > 100 µM (inactive) | > 100 µM (inactive) | > 100 µM (inactive) | > 100 µM (inactive) | > 100 µM (inactive) | > 100 µM (inactive) | > 100 µM (inactive) | 
5 | c1ccc2c(c1)SCCCS2 | > 100 µM (inactive) | > 100 µM (inactive) | > 100 µM (inactive) | > 100 µM (inactive) | 22.4 µM (inactive) | > 100 µM (inactive) | > 100 µM (inactive) | > 100 µM (inactive) |  | > 100 µM (inactive) | > 100 µM (inactive) | > 100 | > 100 µM (inactive) | > 100 µM (inactive) | > 100 µM (inactive) |  | > 100 µM (inactive) | > 100 µM (inactive) | > 100 µM (inactive) | > 100 µM (inactive)
6 | CN1C(=O)CN(NC(=O)C2=C(O)c3ccc(Br)cc3S(=O)(=O)N2)C1=S | > 100 µM (inactive) | > 100 µM (inactive) | 45.3 µM (inactive) | > 100 µM (inactive) | > 100 µM (inactive) | > 100 µM (inactive) | > 100 µM (inactive) | > 100 µM (inactive) | 33.4 µM (inactive) | > 100 µM (inactive) | > 100 µM (inactive) | > 100 | > 100 µM (inactive) |  | > 100 µM (inactive) | > 100 µM (inactive) | > 100 µM (inactive) |  | > 100 µM (inactive) | > 100 µM (inactive)
7 | Cc1cn(C(C)OCCN2C(=O)c3ccccc3C2=O)c(=O)[nH]c1=O (centres undefined) | > 100 µM (inactive) | > 100 µM (inactive) | > 100 µM (inactive) | > 100 µM (inactive) | > 100 µM (inactive) |  | > 100 µM (inactive) | > 100 µM (inactive) |  | > 100 µM (inactive) | > 100 µM (inactive) | > 100 | > 100 µM (inactive) | > 100 µM (inactive) | > 100 µM (inactive) | > 100 µM (inactive) | > 100 µM (inactive) | > 100 µM (inactive) | > 100 µM (inactive) | 
8 | Cc1cn2c(/C=C3/C(=O)Nc4ccccc43)c(-c3ccccc3)nc2s1 | 38.9 µM (inactive) | 37.5 µM (inactive) | > 100 µM (inactive) | > 100 µM (inactive) | 36.5 µM (inactive) | 31 µM (inactive) | 18.7 µM (inactive) | 78.2 µM (inactive) | > 100 µM (inactive) | > 100 µM (inactive) | 93.1 µM (inactive) | > 100 | > 100 µM (inactive) | 85.3 µM (inactive) | > 100 µM (inactive) | > 100 µM (inactive) | 38.5 µM (inactive) | 19.2 µM (inactive) |  | 30.1 µM (inactive)
9 | Clc1ccc(/C(=C/c2ccccc2)Cn2ccnc2)cc1 | 12 µM (inactive) | 20.4 µM (inactive) | 16.8 µM (inactive) | 24.8 µM (inactive) | 12.7 µM (inactive) | > 100 µM (inactive) | 30.2 µM (inactive) | 26.9 µM (inactive) | 8.97 µM (inactive) | 19.9 µM (inactive) | 22.1 µM (inactive) | 20.2 | 30.1 µM (inactive) |  | 44.9 µM (inactive) | 18.2 µM (inactive) | 89.1 µM (inactive) | 24 µM (inactive) | 22.6 µM (inactive) | 19.1 µM (inactive)
10 | OCC1OC(n2cnc3cccnc32)CC1O (centres undefined) | > 100 µM (inactive) | > 100 µM (inactive) | > 100 µM (inactive) | > 100 µM (inactive) | > 100 µM (inactive) | > 100 µM (inactive) | > 100 µM (inactive) | > 100 µM (inactive) |  | > 100 µM (inactive) | > 100 µM (inactive) | > 100 | > 100 µM (inactive) | > 100 µM (inactive) | > 100 µM (inactive) |  | > 100 µM (inactive) | > 100 µM (inactive) | > 100 µM (inactive) | 
11 | c1ccc(C(Oc2noc3ccccc23)c2ccccc2)cc1 | 3.64 µM (inactive) | 30.8 µM (inactive) | 19.9 µM (inactive) | 39.5 µM (inactive) | 35.6 µM (inactive) | 65.8 µM (inactive) | 36.2 µM (inactive) | 29.2 µM (inactive) | 67.5 µM (inactive) | 20.3 µM (inactive) | 35.7 µM (inactive) | 31.3 | 65.5 µM (inactive) | 35.2 µM (inactive) | 51.4 µM (inactive) |  | 88.5 µM (inactive) |  | 22.2 µM (inactive) | 57 µM (inactive)
12 | Cc1ccc2c(/C=C/c3ccc(N(C)C)cc3)ccc(C(C)C)cc1-2 | 36.9 µM (inactive) | > 100 µM (inactive) | > 100 µM (inactive) | > 100 µM (inactive) | 76.4 µM (inactive) | > 100 µM (inactive) | > 100 µM (inactive) |  | > 100 µM (inactive) | > 100 µM (inactive) | > 100 µM (inactive) |  | > 100 µM (inactive) | > 100 µM (inactive) | > 100 µM (inactive) | > 100 µM (inactive) | > 100 µM (inactive) |  |  | > 100 µM (inactive)
13 | O=C(NC(=S)Nc1ccc([N+](=O)[O-])cc1)c1ccc2c(c1)Sc1ccccc1O2 | 24.6 µM (inactive) | > 100 µM (inactive) | > 100 µM (inactive) | > 100 µM (inactive) | 37.3 µM (inactive) | 30.2 µM (inactive) | > 100 µM (inactive) | > 100 µM (inactive) | 65.8 µM (inactive) | > 100 µM (inactive) | > 100 µM (inactive) | > 100 | > 100 µM (inactive) | > 100 µM (inactive) | > 100 µM (inactive) |  | 78.5 µM (inactive) | 45.7 µM (inactive) |  | 77.1 µM (inactive)
14 | C[C@@H]1CCC2[C@@H](C)C(=O)O[C@@H]3C4C[C@@H]1[C@@]23OO[C@@]4(C)O (some centres undefined) | 87.3 µM (inactive) | > 100 µM (inactive) | 55.3 µM (inactive) | > 100 µM (inactive) | > 100 µM (inactive) | 76 µM (inactive) | > 100 µM (inactive) | 52 µM (inactive) | > 100 µM (inactive) | 72.6 µM (inactive) | > 100 µM (inactive) | > 100 | > 100 µM (inactive) | > 100 µM (inactive) | > 100 µM (inactive) | > 100 µM (inactive) | 48.3 µM (inactive) | 55.6 µM (inactive) | > 100 µM (inactive) | 
15 | CCCCC/C=C/C/C=C\CCCCCCCC(=O)NC1CC(O)C(O)NC(=O)C2C(O)C(C)CN2C(=O)C(C(C)O)NC(=O)C(C(O)C(O)c2ccc(O)cc2)NC(=O)C2CC(O)CN2C(=O)C(C(C)O)NC1=O (stereo not drawn) (X55-[ξOrn(4,5-diOH)]T[Hyp][ξhTyr(βξ-OH,γξ-OH)]T[ξPro(3ξ-OH,4ξ-Me)]; lactam 1-C; configuration not given here) | > 100 µM (inactive) | > 100 µM (inactive) | > 100 µM (inactive) | > 100 µM (inactive) | > 100 µM (inactive) | > 100 µM (inactive) | > 100 µM (inactive) | > 100 µM (inactive) |  | > 100 µM (inactive) | > 100 µM (inactive) | > 100 | > 100 µM (inactive) | > 100 µM (inactive) | > 100 µM (inactive) | > 100 µM (inactive) | > 100 µM (inactive) | > 100 µM (inactive) | > 100 µM (inactive) | 
